Changes are numbered by the printed parent chain.
Columns and labels:
[1] = biological target: T1, OsDRP1E (MBP-OsDRP1E) (Oryza sativa, UniProt Q650Z3, E409V); test: colorimetric phosphate release GTPase assay; assay type: biochemical; settings: MBP fusion; time course and 2, 5, 10 ug protein; lower activity than wild type
T1 construct: gene Os09g0572900; tag kept; native protein 70 kDa
T1 sequence (Q650Z3 1-626 E409V): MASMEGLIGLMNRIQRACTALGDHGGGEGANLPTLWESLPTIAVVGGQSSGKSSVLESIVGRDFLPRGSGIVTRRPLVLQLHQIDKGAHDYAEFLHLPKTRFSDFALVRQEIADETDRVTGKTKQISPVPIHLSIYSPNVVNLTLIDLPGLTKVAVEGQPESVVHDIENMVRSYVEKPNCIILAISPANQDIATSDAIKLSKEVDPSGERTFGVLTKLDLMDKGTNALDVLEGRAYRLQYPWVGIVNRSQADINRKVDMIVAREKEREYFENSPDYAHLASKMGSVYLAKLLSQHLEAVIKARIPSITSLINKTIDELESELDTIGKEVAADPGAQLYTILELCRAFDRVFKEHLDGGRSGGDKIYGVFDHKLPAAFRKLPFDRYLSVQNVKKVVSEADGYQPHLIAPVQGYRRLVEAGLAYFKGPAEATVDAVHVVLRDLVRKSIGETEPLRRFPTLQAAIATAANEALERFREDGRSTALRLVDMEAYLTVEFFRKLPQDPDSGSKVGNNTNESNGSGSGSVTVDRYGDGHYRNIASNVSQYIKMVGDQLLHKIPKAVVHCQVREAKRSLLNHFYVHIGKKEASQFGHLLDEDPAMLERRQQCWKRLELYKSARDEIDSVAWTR

[2] = biological target: T2, OsDRP1E (MBP-OsDRP1E) (Oryza sativa, UniProt Q650Z3); test: colorimetric phosphate release GTPase assay; assay type: biochemical; settings: MBP fusion; time course and 2, 5, 10 ug protein
T2 construct: gene Os09g0572900; tag kept; native protein 70 kDa
T2 sequence (Q650Z3 1-626): T1 sequence (Q650Z3 1-626 E409V) with V409E

Nc1nc2c(ncn2[C@@H]2O[C@H](COP(=O)(O)OP(=O)(O)OP(=O)(O)O)[C@@H](O)[C@H]2O)c(=O)[nH]1 [GTP]
colorimetric phosphate release GTPase assay [1]: both MBP-OsDRP1E and MBP-E409V displayed catalytic activity towards the substrate GTP
colorimetric phosphate release GTPase assay [2]: both MBP-OsDRP1E and MBP-E409V displayed catalytic activity towards the substrate GTP

Reference: article PMC5266325, “The Rice Dynamin-Related Protein OsDRP1E Negatively Regulates Programmed Cell Death by Controlling the Release of Cytochrome c from Mitochondria” (PLoS Pathogens, 2017)
